Measurements as given in US8946234B2, “Halogen-substituted compounds” (Bayer CropScience AG, priority 2008, dated 2015).

Assay: logP by HPLC on a C18 phase inversion column, EEC Directive 79/831 Annex V.A8, method a) (Agilent 1100, 10-95% acetonitrile in 4.25 min)
Format: physicochemical
Protocol: ^a) Note regarding the determination of the log P values and mass detection: The log P values given were determined in accordance with EEC Directive 79/831 Annex V.A8 by HPLC (High Performance Liquid Chromatography) on a phase inversion column (C18). Agilent 1100 LC system; 50*4.6 Zorbax Eclipse Plus C18 1.8 micron; eluent A: acetonitrile (0.1% formic acid); eluent B: water (0.09% formic acid); linear gradient from 10% acetonitrile to 95% acetonitrile in 4.25 min, then 95% acetonitrile for a further 1.25 min; oven temperature 55° C.; flow: 2.0 ml/min. The mass detection is carried out via an Agilend MSD system.

[1] = HPLC phase inversion (reversed-phase) C18 column, HPLC method a), eluent acetonitrile/water with formic acid, read-out: logP
[2] = HPLC method a), eluent acetonitrile/water with formic acid, read-out: logP

Row | chromatographic logP [1] | SMILES | further results
1 | 2.18 | CCn1nc(C(F)(F)C(F)(F)F)c(C(F)(F)F)c1C(=O)O [1-Ethyl-3-(pentafluoroethyl)-4-(trifluoromethyl)-1H-pyrazole-5-carboxylic acid] | –
2 | 1.47 | Cn1nc(C(F)(F)F)c(C(F)(F)F)c1C(=O)O [1-Methyl-3,4-bis(trifluoromethyl)-1H-pyrazole-5-carboxylic acid] | –
3 | 2.46 | Cn1ccc(C(F)(Cl)C(F)(F)F)n1 (stereo not drawn) [1-Methyl-3-(1-chloro-1,2,2,2-tetrafluoroethyl)-1H-pyrazole] | –
4 | – | Cn1ccc(C(F)(F)C(F)(F)C(F)(F)F)n1 [1-Methyl-3-heptafluoropropyl-1H-pyrazole] | chromatographic logP [2]: 2.84
5 | – | Cn1nc(C(F)(F)C(F)(F)C(F)(F)C(F)(F)F)cc1C(=O)O [1-Methyl-3-nonafluorobutyl-1H-pyrazole-5-carboxylic acid] | chromatographic logP [2]: 3.01
6 | – | Cn1ccc(C(F)(F)C(F)(F)C(F)(F)C(F)(F)F)n1 [1-Methyl-3-nonafluorobutyl-1H-pyrazole] | chromatographic logP [2]: 3.38
7 | 2.08 | Cn1nc(C(F)(F)C(F)(F)F)cc1C(=O)O [1-Methyl-3-pentafluoroethyl-1H-pyrazole-5-carboxylic acid] | –
8 | – | Cn1nc(C(F)(F)C(F)(F)F)c(C(F)(F)F)c1C(=O)O [1-Methyl-3-pentafluoroethyl-4-trifluoromethyl-1H-pyrazole-5-carboxylic acid] | chromatographic logP [2]: 1.86
9 | – | O=C(O)c1cnc(C(F)(F)C(F)(F)C(F)(F)F)nc1C(F)(F)F [2-(Heptafluoropropyl)-4-(trifluoromethyl)pyrimidine-5-carboxylic acid] | chromatographic logP [2]: 2.23
10 | 3.3 | Cc1nc(C(=O)Nc2ccc(Cl)c(C(=O)O)c2)c(C(F)(F)F)c(C(F)(F)C(F)(F)F)n1 [2-chloro-5-({[2-methyl-6-(pentafluoroethyl)-5-(trifluoromethyl)pyrimidin-4-yl]carbonyl}amino)benzoic acid] | –
11 | 2.35 | O=C(NC1CC1)c1cc(NC(=O)c2cnc(Cl)cc2C(F)(F)F)ccc1Cl [2-chloro-N-[4-chloro-3-(cyclopropylcarbamoyl)phenyl]-4-(trifluoromethyl)pyridine-5-carboxamide] | –
12 | 2 | O=C(O)c1[nH]nc(C(F)(F)C(F)(F)F)c1C(F)(F)F [3-(Pentafluoroethyl)-4-(trifluoromethyl)-1H-pyrazole-5-carboxylic acid] | –
13 | – | Cn1nc(C(F)(F)OC(F)(F)OC(F)(F)F)cc1C(=O)O [3-{[Difluoro(trifluoromethoxy)methoxy](difluoro)methyl}-1-methyl-1H-pyrazole-5-carboxylic acid] | chromatographic logP (logP): 3.38
14 | 3.79 | Cn1ccc(C(F)(F)OC(F)(F)OC(F)(F)F)n1 [3-{[Difluoro(trifluoromethoxy)methoxy](difluoro)methyl}-1-methyl-1H-pyrazole] | –
15 | 1.63 | Cc1nc(C(F)(F)C(F)(F)F)nc(C)c1C(=O)O [4,6-Dimethyl-2-(pentafluoroethyl)pyrimidine-5-carboxylic acid] | –
16 | 1.8 | O=C(O)c1cnc(C(F)(F)C(F)(F)F)nc1C(F)F [4-(Difluoromethyl)-2-(pentafluoroethyl)pyrimidine-5-carboxylic acid] | –
17 | 2.43 | Cn1nc(C(F)(Cl)C(F)(F)F)c(Br)c1C(=O)O (stereo not drawn) [4-Bromo-1-methyl-3-(1-chloro-1,2,2,2-tetrafluoroethyl)-1H-pyrazole-5-carboxylic acid] | –
18 | 3.17 | Cn1cc(Br)c(C(F)(Cl)C(F)(F)F)n1 (stereo not drawn) [4-Bromo-1-methyl-3-(1-chloro-1,2,2,2-tetrafluoroethyl)-1H-pyrazole] | –
19 | – | Cn1nc(C(F)(F)C(F)(F)C(F)(F)F)c(Br)c1C(=O)O [4-Bromo-1-methyl-3-heptafluoropropyl-1H-pyrazole-5-carboxylic acid] | chromatographic logP [2]: 2.26

Row | chromatographic logP [1] | SMILES | further results
20 | – | Cn1cc(Br)c(C(F)(F)C(F)(F)C(F)(F)F)n1 [4-Bromo-1-methyl-3-heptafluoropropyl-1H-pyrazole] | chromatographic logP [2]: 3.53
21 | – | Cn1nc(C(F)(F)C(F)(F)C(F)(F)C(F)(F)F)c(Br)c1C(=O)O [4-Bromo-1-methyl-3-nonafluorobutyl-1H-pyrazole-5-carboxylic acid] | chromatographic logP [2]: 3.17
22 | 4.69 | Cn1nc(C(F)(F)C(F)(F)F)c(Br)c1C(=O)O [4-Bromo-1-methyl-3-pentafluoroethyl-1H-pyrazole-5-carboxylic acid] | –
23 | 3.56 | Cn1nc(C(F)(F)OC(F)(F)OC(F)(F)F)c(Br)c1C(=O)O [4-Bromo-3-{[(difluoro(trifluoromethoxy)methoxy](difluoro)methyl}-1-methyl-1H-pyrazole-5-carboxylic acid] | –
24 | 1.97 | Cc1nc(C(F)(F)C(F)(F)F)ncc1C(=O)O [4-Methyl-2-(pentafluoroethyl)pyrimidine-5-carboxylic acid] | –
25 | 1.26 | Cc1nc(C(F)(F)F)ncc1C(=O)O [4-Methyl-2-(trifluoromethyl)pyrimidine-5-carboxylic acid] | –
26 | 2.85 | Cn1nc(C(F)(F)C(F)(F)F)c(C(F)(F)F)c1C(=O)Nc1cc(C(=O)O)c(Br)cn1 [5-bromo-2-({[1-methyl-3-(pentafluoroethyl)-4-(trifluoromethyl)-1H-pyrazol-5-yl]carbonyl}amino)isonicotinic acid] | –
27 | 2.55 | O=C(NC1CC1)c1cc(NC(=O)c2ncc(Cl)cc2C(F)(F)F)ccc1Cl [5-chloro-N-[4-chloro-3-(cyclopropylcarbamoyl)phenyl]-3-(trifluoromethyl)pyridine-2-carboxamide] | –
28 | – | CCOC(=O)c1cnc(C(F)(F)C(F)(F)C(F)(F)F)nc1C(F)(F)F [Ethyl 2-(heptafluoropropyl)-4-(trifluoromethyl)pyrimidine-5-carboxylate] | chromatographic logP [2]: 4.32
29 | 3.68 | CCOC(=O)c1c(C)nc(C(F)(F)C(F)(F)F)nc1C [Ethyl 4,6-dimethyl-2-(pentafluoroethyl)pyrimidine-5-carboxylate] | –
30 | 3.42 | CCOC(=O)c1cnc(C(F)(F)C(F)(F)F)nc1C(F)F [Ethyl 4-(difluoromethyl)-2-(pentafluoroethyl)pyrimidine-5-carboxylate] | –
31 | 3.33 | Cc1nc(C(=O)Nc2ccc(Cl)c(C(=O)NC3CC3)c2)c(C(F)(F)F)c(C(F)(F)C(F)(F)F)n1 [Ia-1, N-[4-Chloro-3-(cyclopropylcarbamoyl)phenyl]-2-methyl-6-(pentafluoroethyl)-5-(trifluoromethyl)pyrimidine-4-carboxamide] | –
32 | – | O=C(NC1CC1)c1cc(NC(=O)c2cnc(C(F)(F)F)nc2C(F)(F)F)ccc1Cl [Ib-3] | logP: 2.78^a)
33 | – | O=C(NCC(F)(F)F)c1cc(NC(=O)c2cnc(C(F)(F)F)nc2C(F)(F)F)ccc1Cl [Ib-4] | logP: 3.14^a)
34 | – | O=C(NCC=CCl)c1cc(NC(=O)c2cnc(C(F)(F)F)nc2C(F)(F)F)ccc1Cl [Ib-5] | logP: 3.19^a)
35 | – | O=C(NCc1ccccc1)c1cc(NC(=O)c2cnc(C(F)(F)F)nc2C(F)(F)F)ccc1Cl [Ib-6] | logP: 3.39^a)
36 | – | O=C(NC1CC1)c1cc(NC(=O)c2cnc(C(F)(F)C(F)(F)F)nc2C(F)(F)F)ccc1Cl [Ib-7] | logP: 3.20^a)
37 | – | Cc1nc(C(F)(F)C(F)(F)F)nc(C)c1C(=O)Nc1ccc(Cl)c(C(=O)NC2CC2)c1 [Ib-8] | logP: 2.82^a)
38 | – | O=C(NCC(F)(F)F)c1cc(NC(=O)c2cnc(C(F)(F)C(F)(F)F)nc2C(F)(F)F)ccc1Cl [Ib-9] | logP: 3.53^a)

Row | SMILES | chromatographic logP [1] | further results
39 | Cn1ccc(C(F)(F)C(F)(F)F)n1 [1-Methyl-3-pentafluoroethyl-1H-pyrazole] | 2.29 | –
